Data from US8999322B2, “Compositions and methods for modulating hemostasis” (The United States of America National Institutes of Health …, priority 2005, dated 2015).

Tests used:
IITAT = target: T1, IITAT (Homo sapiens, UniProt P00734, E366T/I364T/V365A); experiment: Rescue of IITAT cleavage at Arg-271 by DAPA (areas under mIIa progress curves); format: biochemical; conditions: DAPA 0-300 μM; 5.4 μM IITAT, 0.8 nM prothrombinase; read-out: DAPA concentration for half-maximal effect on rescue of second half-reaction in IITAT cleavage
T1 construct: made in house
Protocol: Reaction mixtures prepared in assay buffer and maintained at 25° C., contained 5.4 μM IIWT, IITAT, or IIQ155,Q284, 20 μM PCPS, 28 nM Va, and indicated concentrations of DAPA. Cleavage was initiated by the addition of 0.8 nM Xa and samples (15 μl), withdrawn at the indicated times, were quenched by mixing with an equal volume of 2 NuPAGE LDS sample buffer (Invitrogen) containing 50 mM EDTA. Quenched samples were treated with 71 mM DTT, heated at 89° C. for 5 min, and subjected to electrophoresis (4.2 μg protein per lane) by using NuPAGE 4-12% gels and Mes running buffer (Invitrogen). Protein bands visualized by staining with Coomassie brilliant blue R-250 were imaged and analyzed by quantitative densitometry by using procedures described in detail in refs. 4 and 15. Analysis of the cleavage of FPR-IIQ320 and NaSCN-treated IIQ320 was performed as described above except that reaction mixtures contained 5.8 μM prothrombin variant, 50 μM PCPS, 60 nM Va, 40 μM DAPA, and 1 nM Xa.
Effects of DAPA were assessed by integrating areas under the progress curves for mIIa formation and its disappearance for the different prothrombin variants (FIG. 5). Normalized areas obtained in the activation of IIWT or IIQ155,Q284 were identical and were independent of DAPA varied between 0 and 300 μM for IIQ155,Q284 or 20 and 300 μM for IIWT. […]

IIaWT = target: T2, IIaWT (Homo sapiens, UniProt P00734); experiment: Binding of DAPA to thrombin variants (fluorescence); conditions: fluorescence studies, data not shown
T2 construct: yielding mIIa as the sole intermediate, followed by cleavage at Arg-271 to produce IIa
Protocol: Front face fluorescence measurements were performed in a plate reader (SpectraMax Gemini, Molecular Devices) by using black polystyrene plates (no. 3650, Corning). Reaction mixtures (100 μl) prepared in assay buffer contained increasing concentrations of DAPA (24 concentrations, 0-100 μM) with no addition, 0.5 μM IIa, or 0.5 μM IIaTAT. […] Subtraction of the intensity measured with DAPA alone yielded the fluorescence change associated with the binding of DAPA to Ha or IIaTAT. Fluorescence data were analyzed as described in ref 7 to infer the equilibrium dissociation constant.

mIIaTAT = target: T3, mIIaTAT (Homo sapiens, UniProt P00734, E366T/I364T/V365A); experiment: DAPA binding to zymogen-like mIIaTAT (interpretation of rescue data); conditions: possible interpretation of rescue findings
T3 construct: made in house; host or cells: IITAT from HEK293 cells, cleaved in the reaction by prothrombinase
Text: Ligands that bind with high affinity to the proteinase are established to enhance the ability of the zymogen to adopt a proteinase-like configuration (13, 20, 23). Our findings are consistent with two possible interpretations. […] Alternatively, DAPA could act by selectively binding and favoring the proteinase in an equilibrium between zymogen-like and proteinase-like forms of mIIaTAT in which the zymogen-like state is highly favored.

IIa = conditions: read-out: Kd of DAPA for IIa; cited from earlier work
mIIa = conditions: read-out: Kd of DAPA for mIIa; cited from earlier work

EC50 (IITAT): ~20 µM
equilibrium dissociation constant of DAPA for IIaWT (IIaWT): nanomolar
Kd (mIIaTAT): 30 µM
SMILES: CCC1CCN(C(=O)C(CCCNC(=N)N)NS(=O)(=O)c2cccc3c(N(C)C)cccc23)CC1 [DAPA, dansyl-L-arginine N-(3-ethyl-1,5-pentanediyl)amide]
Kd (IIa): ~0.001 µM
Kd (mIIa): ~0.001 µM
